Data taken from the NIST ThermoML archive (doi:10.1021/je100832h).

How the values were obtained:
[1] = xn = mol fraction of the nth substance listed; conditions: 101.32 kPa, Liquid, Vibrating tube method
[2] = excess molar enthalpy (molar enthalpy of mixing); xn = mol fraction of the nth substance listed; conditions: 291.15 K, 101 kPa, Liquid, Calvet calorimetry

CCCCCCCCC [nonane] + CCOC(C)=O
[1]
Conditions	mass density [kg/m3]
291.15 K, x2 = 0	719.2
291.15 K, x2 = 0.0328	721.88
291.15 K, x2 = 0.0796	726
291.15 K, x2 = 0.1292	730.54
291.15 K, x2 = 0.2225	740.13
291.15 K, x2 = 0.3076	750
291.15 K, x2 = 0.3932	761.25
291.15 K, x2 = 0.4659	771.77
291.15 K, x2 = 0.5694	788.99
291.15 K, x2 = 0.6015	794.91
291.15 K, x2 = 0.6514	804.7
291.15 K, x2 = 0.7041	815.84
291.15 K, x2 = 0.7547	827.59
291.15 K, x2 = 0.8076	840.96
291.15 K, x2 = 0.8502	852.64
291.15 K, x2 = 0.8954	866.2
291.15 K, x2 = 0.9307	877.58
291.15 K, x2 = 0.9918	899.59
298.15 K, x2 = 0	713.85
298.15 K, x2 = 0.0652	719.2
298.15 K, x2 = 0.1102	723.17
298.15 K, x2 = 0.1906	730.94
298.15 K, x2 = 0.2667	739.14
298.15 K, x2 = 0.3377	747.65
298.15 K, x2 = 0.4128	757.7
298.15 K, x2 = 0.4737	766.6
298.15 K, x2 = 0.5212	774.12
298.15 K, x2 = 0.5875	785.5
298.15 K, x2 = 0.6305	793.54
298.15 K, x2 = 0.6743	802.32
298.15 K, x2 = 0.7212	812.53
298.15 K, x2 = 0.767	823.2
298.15 K, x2 = 0.8024	832.16
298.15 K, x2 = 0.8428	843.01
298.15 K, x2 = 0.8654	849.38
298.15 K, x2 = 0.9419	873.16
298.15 K, x2 = 0.9564	878.07
318.15 K, x2 = 0	698.09
318.15 K, x2 = 0.0372	700.83
318.15 K, x2 = 0.1287	708.3
318.15 K, x2 = 0.2206	717
318.15 K, x2 = 0.3125	726.84
318.15 K, x2 = 0.3941	736.68
318.15 K, x2 = 0.4659	746.38
318.15 K, x2 = 0.5311	756.19
318.15 K, x2 = 0.5965	767.1
318.15 K, x2 = 0.6714	781.02
318.15 K, x2 = 0.7111	789.15
318.15 K, x2 = 0.7598	799.77
318.15 K, x2 = 0.8122	812.28
318.15 K, x2 = 0.8596	824.75
318.15 K, x2 = 0.8955	835.04
318.15 K, x2 = 0.936	847.56
318.15 K, x2 = 0.9808	862.66
328.15 K, x2 = 0	690.4
328.15 K, x2 = 0.0202	691.7
328.15 K, x2 = 0.1246	699.9
328.15 K, x2 = 0.2225	708.81
328.15 K, x2 = 0.3109	717.88
328.15 K, x2 = 0.3923	727.35
328.15 K, x2 = 0.4644	736.84
328.15 K, x2 = 0.5377	747.63
328.15 K, x2 = 0.6125	759.98
328.15 K, x2 = 0.7233	781.1
328.15 K, x2 = 0.7593	788.8
328.15 K, x2 = 0.8102	800.56
328.15 K, x2 = 0.8505	810.9
328.15 K, x2 = 0.8934	822.54
328.15 K, x2 = 0.9507	840.17
328.15 K, x2 = 0.9876	852.64

[2]
Conditions	excess molar enthalpy [kJ/mol]
x2 = 0.0872	0.551
x2 = 0.1735	0.942
x2 = 0.2499	1.25
x2 = 0.3159	1.47
x2 = 0.3746	1.6
x2 = 0.433	1.69
x2 = 0.4869	1.73
x2 = 0.534	1.74
x2 = 0.5836	1.72
x2 = 0.6005	1.7
x2 = 0.6419	1.65
x2 = 0.6885	1.56
x2 = 0.7366	1.45
x2 = 0.7846	1.3
x2 = 0.8345	1.1
x2 = 0.8779	0.856
x2 = 0.9237	0.588
x2 = 0.9619	0.307
